In article PMC12388506, “Preclinical Evaluation of 2-Aminobenzothiazole Derivatives: In Silico, In Vitro, and Preliminary In Vivo Studies as Diabetic Treatments and Their Complications” (Molecules, 2025):

Key:
[1] = tested on: STZ-HFD-induced T2D Wistar rats; experiment: Subchronic evaluation in STZ-HFD-induced T2D model; assay type: in vivo, rat; design: HbA1c: unit not given here
Description: In vivo experiments were conducted in an acute and a subchronic model, where Wistar rats (180–220 g) were used. The study covered a total period of 10 weeks and was carried out under the Mexican Standard, and the “Guide for the Care and Use of Laboratory Animals” of the National Research Council and Health Institutes was followed.
At first, animals were housed in polypropylene cages under conditions of controlled temperature (20–25 °C), relative humidity (36–60%), and light/dark cycles, with water ad libitum. Before starting the experiment, they were given a one-week acclimatization period to adapt to their new habitat. Once finalized, animals were fed an HFD for 3 weeks to generate insulin resistance.
After this period, the animals fasted for 12 h and then were administered intraperitoneally with a single dose of 35 mg/Kg of STZ dissolved in a buffer of 0.1 M citrate, pH 4.5 (prepared on the same day of administration). Once administered, the hypercaloric diet was maintained, and 10% sucrose solution was placed on demand for 2 days.
One week after administration, postprandial blood glucose levels were measured by venipuncture using a glucometer. Those animals that maintained a glucose level between 200 and 400 mg/dL were included in the study.
(§1) Treatments were administered daily as described above, adjusting the dose according to the weight of the individuals. Fasting glucose levels (6 h fast) were monitored every 7 days until the end of treatments at week 10 (Figure 14). Halfway through the last week of treatment, the OGTT was performed, administering a dose of 1.5 g/Kg of glucose orally and subsequently monitoring capillary blood glucose at 0, 15, 30, 60, 90, and 120 min [62]. In addition, a 24-element blood chemistry was measured in a Celercare V automated dry chemistry analyzer (Tianjin MNCHIP Technologies Co., Ltd., Tianjin, China) at the beginning and end of the model. For this purpose, the blood samples were obtained from the tail of the rat.
(§2) At the end of the study, animals fasted for 12 h and were taken to a humane endpoint, where blood samples were obtained. These were kept at room temperature for 30 min and then centrifuged at 4000 RPM for 15 min at 4 °C. Finally, the serum was used to perform 24-element blood chemistry and quantify Trolox-equivalent TAC [86], TNF-α [87], and IL-6 levels using commercial kits from Merck (Darmstadt, Germany), Sigma-Aldrich (St. Louis, MO, USA), Cat. No. MAK334-1KT, RAB0479-1KT, and RAB0311-1KT, respectively. In addition, insulin was quantified using the Rat Ins1/Insulin ELISA Kit, from Sigma-Aldrich, No. Cat. RAB0904-1KT [89] to determine the HOMA-IR index. All kits were performed according to the manufacturer’s instructions without modifications.

FRAP assay = experiment: FRAP assay
Description: All synthesized compounds were evaluated at 30 μM, 50 μM, 70 μM, 90 μM, and 110 μM under two of the most widely used methods in research to directly measure the antioxidant and anti-radical intrinsic capacity, FRAP, and ABTS assay, which were validated by a dose–response curve of 5-ASA as a reference. In the same way, these tests were carried out in triplicate using an assay kit (from Pharmaceutical and Biotechnological Innovation-Services) according to the manufacturer’s instructions.

[2] = tested on: STZ-HFD-induced T2D Wistar rats; experiment: 24-element blood chemistry in STZ-HFD-induced T2D model; assay type: in vivo, rat; design: GGT / TBA / AMY / TG / T-CHOL / GLU: unit not given here; conditions: for ALP / ALT / AST / CK: in U/L (unit assumed); for ALB / GLO / TP: in g/dL (unit assumed); for BUN / CRE / Ca / Mg / P / TBIL / UREA: in mg/dL (unit assumed); for tCO2: in mmol/L (unit assumed); for TP: mean ± SEM, n = 4
Description: as §1, §2

IL-6 = experiment: Ex vivo serum IL-6 quantification; assay type: in vivo, rat
Description: as §2

[3] = after the induction of T2D, before treatment

## COC(=O)[C@H](Cc1ccccc1)N/C(=N\c1nc2ccccc2s1)SC [8d, Methyl (E)-((benzo[d]thiazol-2-ylimino)(methylthio)methyl)-L-phenylalaninate]
[1]; After 5 weeks of treatment
  HOMA-IR: 1.66 ± 0.611
  R-QUICKI: 0.376 ± 0.031
[1]; After 5 weeks of treatment, mean ± SEM, n = 4
  HbA1c: 9.267 ± 0.802
[1]; Final (end of 5 weeks treatment), PGZ 30 mg/Kg, 8d 32 mg/Kg, mean ± SEM, n = 4
  HOMA-IR: 1.66 ± 0.61
[1]; Initial (beginning of treatment), PGZ 30 mg/Kg, 8d 32 mg/Kg, mean ± SEM, n = 4
  HOMA-IR: 4.22 ± 1.58
[1]; [3]
  HOMA-IR: 4.22 ± 1.577
  R-QUICKI: 0.318 ± 0.013
[1]; after the induction of T2D, before treatment, mean ± SEM, n = 4
  HbA1c: 8.633 ± 0.536
[1]; after treatment
  adipogenic effect at necropsy: clear adipogenic effect
[1]; daily oral treatment
  polydipsia (water consumption): decreasing the polydipsia after the first week of treatment
[1]; daily oral, 5 weeks
  fasting blood glucose, subchronic: lower blood glucose levels close to the normoglycemia of the healthy group
[1]; necropsy
  redistribution of adipose tissue from visceral to subcutaneous fat: barely perceptible
FRAP assay; 30 µM
  Percentage reduction of ferric ion to ferrous ion (FRAP): 12.7%
FRAP assay; 50 µM
  Percentage reduction of ferric ion to ferrous ion (FRAP): 14.1%
FRAP assay; 70 µM
  Percentage reduction of ferric ion to ferrous ion (FRAP): 15.1%
FRAP assay; 90 µM
  Percentage reduction of ferric ion to ferrous ion (FRAP): 16.9%
FRAP assay; 110 µM
  Percentage reduction of ferric ion to ferrous ion (FRAP): 18.4%
[2]; After 5 weeks of treatment
  triglycerides (TG): significantly reducing TG
[2]; Final
  A/G: 1.28 ± 0.03
  AMY: 436.50 ± 29.54
  AST/ALT: 4.42 ± 0.79
  BUN/CRE: 28.50 ± 6.00
  GGT: 0.65 ± 0.18
  GLU: 172.75 ± 50.56
  T-CHOL: 90.00 ± 16.06
  TBA: 54.33 ± 31.99
  TG: 177.90 ± 82.61
  ALP: 210.25 ± 109.57
  ALT: 85.50 ± 27.46
  AST: 319.75 ± 51.70
  CK: > 3000
  ALB: 4.00 ± 0.16
  GLO: 3.13 ± 0.13
  BUN: 17.78 ± 4.29
  CRE: 0.62 ± 0.03
  Ca: 9.82 ± 0.48
  Mg: 2.34 ± 0.09
  P: 7.89 ± 0.55
  TBIL: 0.25 ± 0.05
  UREA: 38.10 ± 9.11
  tCO2: 18.00 ± 0.82
  TP: 7.13 ± 0.28
[2]; Initial
  A/G: 1.3 ± 0.11
  AMY: 361.25 ± 6.54
  AST/ALT: 2.16 ± 0.40
  BUN/CRE: 21.50 ± 2.60
  GGT: 1.33 ± 0.38
  GLU: 188.50 ± 31.74
  T-CHOL: 105.5 ± 19.94
  TBA: 79.85 ± 13.64
  TG: 291.35 ± 160.5
  ALP: 287.75 ± 31.54
  ALT: 68.75 ± 11.67
  AST: 135.75 ± 8.14
  CK: 641.75 ± 63.37
  ALB: 3.78 ± 0.08
  GLO: 2.95 ± 0.22
  BUN: 11.94 ± 1.46
  CRE: 0.56 ± 0.00
  Ca: 9.45 ± 0.16
  Mg: 2.18 ± 0.07
  P: 6.83 ± 0.64
  TBIL: 0.31 ± 0.05
  UREA: 25.65 ± 3.10
  tCO2: 15.25 ± 0.63
  TP: 6.73 ± 0.20
[2]; subchronic treatment
  hepatotoxicity: without inducing hepatotoxicity
IL-6; IL-6 and TNF-α together
  effect on IL-6 and TNF-α levels: highest levels of both cytokines
IL-6; Table S11, After 5 weeks of treatment
  IL-6: 887.53 ± 243.91 pg/mL
IL-6; serum, end of treatment, mean ± SEM, n = 4
  IL-6: 887.53 ± 243.91 pg/mL
